Test results from US9340574B2, “Inhibitors of protein tyrosine phosphatases” (Indiana University Research and Technology Corporation, priority 2012, dated 2016).

Columns and labels:
PTP-MEG2 = PTP-MEG2 (Homo sapiens (Human), UniProt P43378); test: pNPP hydrolysis enzyme assay, PTP-MEG2; type: biochemical
Procedure: (§1) Enzyme kinetic assay. PTP activity was assayed using p-nitrophenyl phosphate (pNPP) as a substrate in 3,3-dimethylglutarate buffer (50 mM 3,3-dimethylglutarate, pH 7.0, 1 mM EDTA, 150 mM NaCl, 2 mM DTT, 0.1 mg/mL BSA) at 25° C. The assays were performed in 96-well plates. Normally, to determine the IC50 values, the reaction was initiated by the addition of enzyme (final concentration at 10 nM) to a reaction mixture (0.2 mL) containing 2 mM (Km for the substrate) pNPP with various concentrations of inhibitors. The reaction rate was measured using a SpectraMax Plus 384 Microplate Spectrophotometer (Molecular Devices). To determine the mode of inhibition, the reactions were initiated by the addition of PTP-MEG2 to the reaction mixtures (0.2 mL) containing various concentrations of pNPP with different concentrations of the inhibitor 7. Data were fitted using SigmaPlot Enzyme Kinetics Module (Systat Software, Inc.).
PTP-MEG2 Overexpression, and Purification. The expression vector containing residues 277-582 of PTP-MEG2 catalytic domain was provided by Stefan Knapp at the University of Oxford. For protein expression, transformed cells were grown at 37° C. in Luria broth (LB) containing […] ampicillin for 4 h to an OD600 nm @0.6, and then induced for overnight at 18° C. with 0.4 mM IPTG. Cells were harvested by centrifugation (6500 rpm for 15 min at 4° C.), and the cell pellets from 1.5 L LB medium were suspended in 30 mL of ice-cold lysis buffer consisting of 5 mM imidazole, 500 mM NaCl, 20 mM Tris-HCl (pH 7.9), 0.05 mg/mL trypsin inhibitor and 0.1 mM PMSF. The suspensions were passed twice through a French Press at 1200 psi, and the cell lysates were centrifuged at 4° C. for 30 min at 16,000 rpm. The supernatants were mixed with 2 mL Ni-NTA Agarose (His*Bind Resin) (Qiagen) at 4° C. for 1 hour, then transferred mixture to an empty column. The column was washed by 200 mL binding buffer (5 mM imidazole, 500 mM NaCl, 20 mM Tris-HCl (pH 7.9)), followed by 20 mL wash buffer (20 mM imidazole, 500 mM NaCl, 20 mM Tris-HCl (pH 7.9)), and then eluted with 20 mL elution buffer (200 mM imidazole, 500 mM NaCl, 20 mM Tris-HCl (pH 7.9), 5 mM DTT). The elution was dialyzed for 6 h at 4° C. against 1 L buffer A (50 mM NaCl, 20 mM MES (pH6.0), 1 mM EDTA), and then loaded onto a Mono S column equilibrated at 4° C. with buffer A. The column was washed with 10 ml buffer A and then eluted with a 40 mL linear gradient of 0 to 1M NaCl in buffer A. The PTP-MEG2 was eluted at 0.35 M NaCl. The column fractions were analyzed by measuring the absorbance at 280 nm and by carrying out SDS-PAGE analysis. The fractions were combined, dialyzed against 1 L buffer A and concentrated at 4° C. to 8 mg/mL using an Amicon concentrator and then stored at −80° C.

PTP-PEST = PTP-PEST (Homo sapiens (Human), UniProt Q05209); test: pNPP hydrolysis enzyme assay, PTP-PEST; type: biochemical
Sequence of PTP-PEST (Q05209 whole entry, species assumed): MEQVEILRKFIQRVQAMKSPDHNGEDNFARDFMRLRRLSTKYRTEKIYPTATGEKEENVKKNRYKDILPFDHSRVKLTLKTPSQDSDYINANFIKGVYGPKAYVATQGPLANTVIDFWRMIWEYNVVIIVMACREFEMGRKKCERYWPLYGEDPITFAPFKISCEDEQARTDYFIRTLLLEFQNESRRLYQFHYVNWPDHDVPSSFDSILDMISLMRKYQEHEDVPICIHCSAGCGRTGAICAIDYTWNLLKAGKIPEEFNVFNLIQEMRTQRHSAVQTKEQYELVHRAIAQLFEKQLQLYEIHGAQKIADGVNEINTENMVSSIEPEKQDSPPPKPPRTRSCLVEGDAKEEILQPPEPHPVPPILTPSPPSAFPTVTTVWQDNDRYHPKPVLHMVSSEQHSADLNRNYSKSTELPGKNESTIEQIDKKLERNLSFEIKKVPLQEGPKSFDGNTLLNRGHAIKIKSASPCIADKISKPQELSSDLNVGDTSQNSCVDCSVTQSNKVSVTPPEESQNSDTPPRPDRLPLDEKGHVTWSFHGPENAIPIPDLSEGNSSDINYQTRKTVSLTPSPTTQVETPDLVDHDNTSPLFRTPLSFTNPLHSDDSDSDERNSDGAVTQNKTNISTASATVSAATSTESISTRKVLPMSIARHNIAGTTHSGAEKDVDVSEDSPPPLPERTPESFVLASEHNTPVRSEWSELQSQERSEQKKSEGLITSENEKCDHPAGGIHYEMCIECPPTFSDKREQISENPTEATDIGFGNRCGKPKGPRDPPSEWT
Procedure: as §1

[1] = system: 3T3-L1 differentiated adipocytes; test: Insulin signaling in 3T3-L1 differentiated adipocytes; type: cell-based; conditions: 3T3-L1 adipocytes, 1 hour pretreatment before insulin
Procedure: Cell lysate (20 μg protein) was subjected to 10% SDS-PAGE and probed with phospho-Akt, phospho-IR (Y1162/1163) or Akt antibody, respectively. […] Cell lysate (20 μg protein) was subjected to 10% SDS-PAGE and probed with phospho-IR(Y1162/1163), phospho-Akt (pS473) or total Akt antibody, respectively. […] Cell lysate (20 μg protein) or insulin receptor immunoprecipitation beads were subjected to 10% SDS-PAGE and probed with phospho-Akt, Akt, insulin receptor beta or phospho-tyrosine antibody (4G10), respectively. The non-specific band from insulin receptor immunoprecipitates served as a loading control for insulin receptor and phospho-insulin receptor.
Western blot analysis. Cells were homogenized in the lysis buffer (50 mM Hepes, pH 7.5, 150 mM NaCl, 10% Glycerol, 1% Triton X-100, 1.5 mM MgCl2, 1 mM EGTA, 10 μM Sodium Pyrophosphate, 100 mM sodium fluoride and freshly added 100 μM sodium vanadate, 1 mM PMSF, 10 μg/ml Aprotinin, and 10 μg/mL Leupeptin). Protein extracts were resolved on an SDS-PAGE gel and transferred to nitrocellulose membrane. […] Protein signals were detected by incubation with HRP-conjugated secondary antibodies, followed by ECL detection reagent (Pierce). Western blots were scanned and quantified using the Quantity One software (Bio-Rad).

Sequence of PTP-MEG2 (P43378 277-582): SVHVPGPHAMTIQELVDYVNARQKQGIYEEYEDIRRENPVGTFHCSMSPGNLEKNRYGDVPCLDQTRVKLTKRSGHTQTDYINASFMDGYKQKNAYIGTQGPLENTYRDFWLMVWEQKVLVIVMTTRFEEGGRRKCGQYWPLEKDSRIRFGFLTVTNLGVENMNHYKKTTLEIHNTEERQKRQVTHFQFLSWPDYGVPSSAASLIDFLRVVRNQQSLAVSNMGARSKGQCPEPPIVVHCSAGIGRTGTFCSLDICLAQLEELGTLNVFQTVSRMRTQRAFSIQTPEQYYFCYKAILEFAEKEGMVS

COc1cc(CC(=O)NCC(NC(=O)C(CCCNC(=O)c2cccc(I)c2)NC(=O)C(Cc2ccc(C(F)(F)P(=O)(O)O)cc2)NC(=O)c2ccc(C)c(Br)c2)C(N)=O)ccc1O (stereo not drawn) [Compound 7]
improvement in potency / binding affinity for PTP-MEG2 over the preceding lead (PTP-MEG2; Compound 5 vs Compound 3, Compound 7 vs Compound 5): 3.6 fold
mode of inhibition of PTP-MEG2 (PTP-MEG2; kinetic analysis): reversible and competitive inhibitor
Ki (PTP-MEG2; kinetic analysis, Lineweaver-Burk): 34 ± 2 nM
IC50 (PTP-MEG2; pNPP substrate, read-out: IC50 (nM) PTP-MEG2): 75 ± 10 nM
IC50 (PTP-PEST): > 10000 nM
insulin signaling (phospho-Akt, phospho-IR) [1]: augmented insulin signaling
